Tests used:
[1] = test system: PD1-ss+10aa/Gaussia Luciferase; assay: Dox-Induced PD1-ss-Gluc Assay; type: cell-based; settings: 24 hr Dox induction; 293FRT/TO cells; read-out: 24 hr Dox Inducible PD1ssGluc 293FRT/TO: Mean IC50
Outline: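 Doxycycline-induced expression of a PD1-ss+10aa/Gaussia luciferase reporter is measured in stable Flp-In 293 T-REx cells. Compound dilutions containing doxycycline are added one day after plating and incubated at 37 °C, 5% CO2. Values for unassigned stereocentres refer to stereoisomer mixtures.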

[2] = Liver Microsome Stability Assay (human); settings: human liver microsomes, with NADPH, 1.0 uM compound
Procedure: (§1) Stability of a compound was assessed in the presence of liver microsomes from various sources—mouse, rat, monkey and human liver microsomes. 1.0 uM compound, 0.4% DMSO in 0.1 M Potassium Phosphate with 1.0 mg/mL liver microsomes, were incubated at 37° C. with or without 1 mM NADPH. The samples were quenched at 0, and 30 minutes.

[3] = Liver Microsome Stability Assay (mouse); settings: mouse liver microsomes, with NADPH, 1.0 uM compound
Procedure: as §1

[4] = Liver Microsome Stability Assay (rat); settings: rat liver microsomes, with NADPH, 1.0 uM compound
Procedure: as §1

[5] = test system: TNFα-FL/Gaussia Luciferase; assay: Dox Induced TNFα-FL-Gluc Assay; type: cell-based; settings: for IC50: 24 hr Dox induction, 293FRT/TO cells, read-out: 24 hr Dox Inducible TNFaFLGluc 293FRT/TO: Mean IC50; for 24 hr Dox Inducible TNFaFLGluc 293FRT/TO: TNF/PD1: ratio of TNFaFLGluc IC50 to PD1ssGluc IC50
Outline: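 Flp-In 293 T-REx cells stably expressing full-length TNFα (aa 1-233) fused at its C-terminus to Gaussia luciferase under tetracycline-regulated control were plated the day before assay. Compound dilutions in DMSO/media containing doxycycline were added and incubated at 37 °C, 5% CO2. Unspecified stereochemistry denotes stereoisomer mixtures.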

[6] = test system: multiple myeloma cell line NCI-H929; assay: H929 Cell Viability Assay; type: cell-based, human; settings: Homo sapiens, NCI-H929, 48 h, NCI-H929 cells, Celltiter-Glo
Outline: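 NCI-H929 cells, resuspended in RPMI 1640 with 10% FBS and 2 mM glutamine, were treated with compound dilutions in DMSO/media and incubated 48 hours at 37° C, 5% CO2. Viability was read by CellTiter-Glo luminescence. Compounds drawn without stereochemistry were tested as stereoisomer mixtures.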

[7] = test system: multiple myeloma cell line U266B1; assay: U266 Cell Viability Assay; type: cell-based, human; settings: Homo sapiens, U-266, 48 h, U266B1 cells, Celltiter-Glo
Outline: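 Cells grown in RPMI 1640 with 10% FBS, 2 mM glutamine and penicillin/streptomycin were exposed to compound dilutions in DMSO/media for 48 hours at 37° C., 5% CO2. Viability was read by CellTiter-Glo luminescence. Undefined stereocentres mean data for stereoisomer mixtures.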

[8] = Liver Microsome Stability Assay (monkey); settings: monkey liver microsomes, with NADPH, 1.0 uM compound
Procedure: as §1

[9] = test system: HER3-ss+4aa/Gaussia Luciferase; assay: Dox-Induced Her3-ss-Gluc Assay; type: cell-based; settings: 24 hr Dox induction; 293FRT/TO cells; read-out: 24 hr Dox Inducible Her3(ss + 4)Gluc 293FRT/TO: Mean IC50
Outline: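 Stable Flp-In 293 T-REx line expressing Gaussia luciferase fused to the HER3 signal sequence plus 4 amino acids under tetracycline-regulated (T-REx) control. Cells plated the day before, then treated with compound dilutions in DMSO/media containing doxycycline and incubated at 37° C., 5% CO2.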

[10] = test system: IL-2-FL/Gaussia Luciferase; assay: Dox Induced IL2-FL-Gluc Assay; type: cell-based; settings: for IC50: 24 hr Dox induction, 293FRT/TO cells, read-out: 24 hr Dox Inducible IL2FLGluc 293FRT/TO: Mean IC50; for 24 hr Dox Inducible IL2FLGluc 293FRT/TO: IL2/PD1: ratio of IL2FLGluc IC50 to PD1ssGluc IC50
Outline: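 Flp-In 293 T-REx cells stably carrying doxycycline-inducible full-length IL-2 (aa 1-153) fused at its C-terminus to Gaussia luciferase, selected with hygromycin and blasticidin. Cells were plated the day before, then treated with compounds in DMSO/media containing doxycycline at 37° C, 5% CO2.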

IC50 [1] [nM]	Liver Microsome Stability (Multiple Species): Human - % Remaining after 30 min w/NADPH [2] [%]	Liver Microsome Stability (Multiple Species): Mouse - % Remaining after 30 min w/NADPH [3] [%]	Liver Microsome Stability (Multiple Species): Rat - % Remaining after 30 min w/NADPH [4] [%]	IC50 [5] [nM]	EC50 [6] [nM]	EC50 [7] [nM]	Liver Microsome Stability (Multiple Species): Monkey - % Remaining after 30 min w/NADPH [8] [%]	IC50 [9] [nM]	IC50 [10] [nM]	SMILES	24 hr Dox Inducible TNFaFLGluc 293FRT/TO: TNF/PD1 [5]	24 hr Dox Inducible IL2FLGluc 293FRT/TO: IL2/PD1 [10]
3.15	5.11	5.75	8.78	158	136	1170	3.34	9.38	6.78	O=C(Nc1nc([C@H]2CCCN2c2ccc(Cl)cc2)cs1)c1cccn1Cc1ccncc1 [Compound A26, (R)-N-(4-(1-(4-chlorophenyl)pyrrolidin-2-yl)thiazol-2-yl)-1-(pyridin-4-ylmethyl)-1H-pyrrole-2-carboxamide]	50.2	2.1
57.9	1.61	6.54	0.33	1100	5790	> 25000	0.51	109	144	O=C(Nc1nc([C@H]2CCCN2c2ccc([N+](=O)[O-])cc2)cs1)c1cccn1Cc1ccncc1 [Compound A27, (R)-N-(4-(1-(4-nitrophenyl)pyrrolidin-2-yl)thiazol-2-yl)-1-(pyridin-4-ylmethyl)-1H-pyrrole-2-carboxamide]	19.1	2.5
5.73	16.4	30.3	51.5	137	251	10100	3.97	11.6	10.8	O=C(Nc1nc([C@H]2CCCN2c2ccc(C(F)(F)F)cc2)cs1)c1cccn1Cc1ccncc1 [Compound A28, (R)-1-(pyridin-4-ylmethyl)-N-(4-(1-(4-(trifluoromethyl)phenyl)pyrrolidin-2-yl)thiazol-2-yl)-1H-pyrrole-2-carboxamide]	23.9	1.9
534	0.59	1.4	4.6	13100	> 25000	> 25000	0.39	1130	2220	O=C(Nc1nc([C@H]2CCCN2c2cccnn2)cs1)c1cccn1Cc1ccncc1 [Compound A29, (R)-N-(4-(1-(pyridazin-3-yl)pyrrolidin-2-yl)thiazol-2-yl)-1-(pyridin-4-ylmethyl)-1H-pyrrole-2-carboxamide]	24.4	4.1
167	28.6	62.6	30	3880	3310	6950	26	415	408	NCc1ccc(N2CCC[C@@H]2c2csc(NC(=O)c3cccn3Cc3ccncc3)n2)cc1 [Compound A44, (R)-N-(4-(1-(4-(aminomethyl)phenyl)pyrrolidin-2-yl)thiazol-2-yl)-1-(pyridin-4-ylmethyl)-1H-pyrrole-2-carboxamide]	23.3	2.4
16.4	0.08	0.76	0.29	220	425	> 25000	0.1	34.3	55.5	CC(=O)NCc1ccc(N2CCC[C@@H]2c2csc(NC(=O)c3cccn3Cc3ccncc3)n2)cc1 [Compound A45, (R)-N-(4-(1-(4-(acetamidomethyl)phenyl)pyrrolidin-2-yl)thiazol-2-yl)-1-(pyridin-4-ylmethyl)-1H-pyrrole-2-carboxamide]	13.4	3.4
3	3.12	4.16	9.73	52	79	> 25000	2.39	6.51	4.11	CC(=O)Nc1ccc(N2CCC[C@@H]2c2csc(NC(=O)c3cccn3Cc3ccncc3)n2)cc1 [Compound A46, (R)-N-(4-(1-(4-acetamidophenyl)pyrrolidin-2-yl)thiazol-2-yl)-1-(pyridin-4-ylmethyl)-1H-pyrrole-2-carboxamide]	17.3	1.4
43.6	1.82	0.02	1.17	554	1210	> 25000	0.06	83.5	82.3	CC(=O)N(C)c1ccc(N2CCC[C@@H]2c2csc(NC(=O)c3cccn3Cc3ccncc3)n2)cc1 [Compound A47]	12.7	1.9
6.13	2.91	4.71	0.64	101	150	> 25000	1.44	17.4	13.5	COCc1ccc(N2CCC[C@@H]2c2csc(NC(=O)c3cccn3Cc3ccncc3)n2)cc1 [Compound A48, (R)-N-(4-(1-(4-(methoxymethyl)phenyl)pyrrolidin-2-yl)thiazol-2-yl)-1-(pyridin-4-ylmethyl)-1H-pyrrole-2-carboxamide]	16.4	2.2
